Test results: ChEMBL document CHEMBL5465560, “Selectivity Literature for EUbOPEN Chemogenomic Library” (2024)
Blank lines part the entries; values can stand above or below the compound they belong to.

Key:
[1] = biological target: Mitogen-activated protein kinase 14 (Homo sapiens, UniProt Q16539); test: Selectivity interaction (Radiometric kinase assay (using 10 uM ATP)) EUB0000601a MAPK14
[2] = biological target: CDK4/Cyclin D3 (Homo sapiens) (UniProt P11802+P30281); test: (§1) Selectivity interaction (Ambit KINOMEscan and KiNATiv profiling in Jurkat cells) EUB0000090b CDK4; assay type: cell-based; details: at 1 µM
[3] = biological target: Cyclin-dependent kinase 4/cyclin D1 (Homo sapiens) (UniProt P11802+P24385); test: as §1; assay type: cell-based; details: at 1 µM
[4] = biological target: T1, Serine/threonine-protein kinase ULK1 (Homo sapiens) (UniProt O75385); test: Selectivity interaction (KinomeScan (DiscoverX)) EUB0001079a ULK1; details: at 1 µM
T1 sequence (whole entry): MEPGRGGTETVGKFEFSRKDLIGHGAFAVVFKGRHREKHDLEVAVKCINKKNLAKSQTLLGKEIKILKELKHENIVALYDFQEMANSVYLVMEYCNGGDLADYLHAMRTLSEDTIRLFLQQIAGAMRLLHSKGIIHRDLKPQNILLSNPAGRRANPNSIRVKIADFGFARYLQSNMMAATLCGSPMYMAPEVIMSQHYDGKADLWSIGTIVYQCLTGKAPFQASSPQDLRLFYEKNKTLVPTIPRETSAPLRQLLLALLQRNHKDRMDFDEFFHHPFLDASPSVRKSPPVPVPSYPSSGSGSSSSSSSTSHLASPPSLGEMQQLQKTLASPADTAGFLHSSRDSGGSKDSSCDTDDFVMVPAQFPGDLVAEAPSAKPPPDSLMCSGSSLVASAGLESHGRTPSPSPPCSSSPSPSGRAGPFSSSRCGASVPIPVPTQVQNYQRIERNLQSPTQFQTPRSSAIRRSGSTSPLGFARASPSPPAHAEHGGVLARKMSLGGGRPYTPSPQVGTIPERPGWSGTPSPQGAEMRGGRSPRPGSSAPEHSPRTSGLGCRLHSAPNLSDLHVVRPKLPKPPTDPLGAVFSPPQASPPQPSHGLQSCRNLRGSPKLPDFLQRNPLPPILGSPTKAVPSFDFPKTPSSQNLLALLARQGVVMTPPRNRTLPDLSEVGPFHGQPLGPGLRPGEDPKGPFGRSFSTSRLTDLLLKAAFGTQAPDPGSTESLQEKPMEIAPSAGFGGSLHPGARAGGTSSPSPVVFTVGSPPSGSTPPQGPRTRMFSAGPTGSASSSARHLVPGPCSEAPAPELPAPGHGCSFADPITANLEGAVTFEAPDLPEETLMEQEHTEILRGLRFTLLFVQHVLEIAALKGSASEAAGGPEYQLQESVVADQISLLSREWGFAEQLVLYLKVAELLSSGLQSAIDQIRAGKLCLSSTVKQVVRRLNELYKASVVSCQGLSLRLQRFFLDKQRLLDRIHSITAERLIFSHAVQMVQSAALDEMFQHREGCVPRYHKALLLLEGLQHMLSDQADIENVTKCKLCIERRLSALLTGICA

[5] = biological target: Rho-associated protein kinase 1 (Homo sapiens) (UniProt Q13464); test: Selectivity interaction (KinomeScan (DiscoverX)) EUB0000618a ROCK1; details: at 10 µM
[6] = biological target: T2, Receptor-interacting serine/threonine-protein kinase 4 (Homo sapiens) (UniProt P57078); test: Selectivity interaction (KinomeScan (DiscoverX)) EUB0001619a RIPK4; details: at 1 µM
T2 sequence (whole entry): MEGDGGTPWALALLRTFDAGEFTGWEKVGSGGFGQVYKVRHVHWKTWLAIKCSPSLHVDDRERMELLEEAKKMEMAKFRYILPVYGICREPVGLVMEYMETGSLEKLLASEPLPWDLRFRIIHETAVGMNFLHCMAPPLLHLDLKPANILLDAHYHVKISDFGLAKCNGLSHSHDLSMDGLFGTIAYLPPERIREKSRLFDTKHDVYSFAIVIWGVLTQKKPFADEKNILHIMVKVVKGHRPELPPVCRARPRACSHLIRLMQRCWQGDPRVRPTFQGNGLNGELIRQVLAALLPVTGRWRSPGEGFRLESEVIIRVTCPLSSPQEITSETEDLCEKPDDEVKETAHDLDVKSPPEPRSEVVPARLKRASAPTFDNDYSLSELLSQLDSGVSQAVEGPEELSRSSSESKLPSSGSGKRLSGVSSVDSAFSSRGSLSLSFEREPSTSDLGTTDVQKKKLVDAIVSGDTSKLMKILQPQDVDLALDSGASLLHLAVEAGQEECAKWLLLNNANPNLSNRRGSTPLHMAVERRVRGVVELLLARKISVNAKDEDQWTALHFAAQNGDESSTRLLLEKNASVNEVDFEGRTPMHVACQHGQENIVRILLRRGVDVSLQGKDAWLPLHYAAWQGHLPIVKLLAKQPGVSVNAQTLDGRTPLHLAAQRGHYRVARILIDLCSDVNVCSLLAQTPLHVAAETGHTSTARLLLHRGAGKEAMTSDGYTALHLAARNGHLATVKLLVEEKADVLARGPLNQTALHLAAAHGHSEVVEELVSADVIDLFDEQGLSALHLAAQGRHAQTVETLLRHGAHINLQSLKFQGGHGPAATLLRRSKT

[7] = biological target: Dual specificity protein kinase CLK3 (Homo sapiens, UniProt P49761); test: Selectivity interaction (KinomeScan (DiscoverX)) EUB0000045b CLK3
[8] = biological target: SRSF protein kinase 2 (Homo sapiens) (UniProt P78362); test: Selectivity interaction (KinomeScan (DiscoverX)) EUB0000595a SRPK2; details: at 10 µM
[9] = biological target: Tyrosine-protein kinase HCK (Homo sapiens) (UniProt P08631); test: Selectivity interaction (ActivX KiNativ screen (kinase selectivity in THP-1 cell lysates)) EUB0000639a HCK; assay type: subcellular; details: lysate, at 0.2 µM
[10] = biological target: Serine/threonine-protein kinase MARK2 (Homo sapiens) (UniProt Q7KZI7); test: Selectivity interaction (ActivX KiNativ screen (kinase selectivity in THP-1 cell lysates)) EUB0000639a MARK2; assay type: subcellular; details: lysate, at 0.01 µM
[11] = biological target: Serine/threonine-protein kinase WNK1 (Homo sapiens) (UniProt Q9H4A3); test: Selectivity interaction (ActivX KiNativ screen (kinase selectivity in THP-1 cell lysates)) EUB0000639a WNK1; assay type: subcellular; details: lysate
[12] = biological target: Casein kinase I isoform delta (Homo sapiens, UniProt P48730); test: Selectivity interaction (ProQinase) EUB0000171b CSNK1D
[13] = biological target: Vascular endothelial growth factor receptor 1 (Homo sapiens) (UniProt P17948); test: Selectivity interaction (KinomeScan (DiscoverX)) EUB0001049a FLT1; details: at 1 µM
Activated CDC42 kinase 1 = Activated CDC42 kinase 1 (Homo sapiens, UniProt Q07912); test: Selectivity interaction (KinomeScan (DiscoverX)) EUB0000092b TNK2; details: at 10 µM

Chain of Serine/threonine-protein kinase WNK1 (Homo sapiens) (Q9H4A3 whole entry, looked up, canonical isoform): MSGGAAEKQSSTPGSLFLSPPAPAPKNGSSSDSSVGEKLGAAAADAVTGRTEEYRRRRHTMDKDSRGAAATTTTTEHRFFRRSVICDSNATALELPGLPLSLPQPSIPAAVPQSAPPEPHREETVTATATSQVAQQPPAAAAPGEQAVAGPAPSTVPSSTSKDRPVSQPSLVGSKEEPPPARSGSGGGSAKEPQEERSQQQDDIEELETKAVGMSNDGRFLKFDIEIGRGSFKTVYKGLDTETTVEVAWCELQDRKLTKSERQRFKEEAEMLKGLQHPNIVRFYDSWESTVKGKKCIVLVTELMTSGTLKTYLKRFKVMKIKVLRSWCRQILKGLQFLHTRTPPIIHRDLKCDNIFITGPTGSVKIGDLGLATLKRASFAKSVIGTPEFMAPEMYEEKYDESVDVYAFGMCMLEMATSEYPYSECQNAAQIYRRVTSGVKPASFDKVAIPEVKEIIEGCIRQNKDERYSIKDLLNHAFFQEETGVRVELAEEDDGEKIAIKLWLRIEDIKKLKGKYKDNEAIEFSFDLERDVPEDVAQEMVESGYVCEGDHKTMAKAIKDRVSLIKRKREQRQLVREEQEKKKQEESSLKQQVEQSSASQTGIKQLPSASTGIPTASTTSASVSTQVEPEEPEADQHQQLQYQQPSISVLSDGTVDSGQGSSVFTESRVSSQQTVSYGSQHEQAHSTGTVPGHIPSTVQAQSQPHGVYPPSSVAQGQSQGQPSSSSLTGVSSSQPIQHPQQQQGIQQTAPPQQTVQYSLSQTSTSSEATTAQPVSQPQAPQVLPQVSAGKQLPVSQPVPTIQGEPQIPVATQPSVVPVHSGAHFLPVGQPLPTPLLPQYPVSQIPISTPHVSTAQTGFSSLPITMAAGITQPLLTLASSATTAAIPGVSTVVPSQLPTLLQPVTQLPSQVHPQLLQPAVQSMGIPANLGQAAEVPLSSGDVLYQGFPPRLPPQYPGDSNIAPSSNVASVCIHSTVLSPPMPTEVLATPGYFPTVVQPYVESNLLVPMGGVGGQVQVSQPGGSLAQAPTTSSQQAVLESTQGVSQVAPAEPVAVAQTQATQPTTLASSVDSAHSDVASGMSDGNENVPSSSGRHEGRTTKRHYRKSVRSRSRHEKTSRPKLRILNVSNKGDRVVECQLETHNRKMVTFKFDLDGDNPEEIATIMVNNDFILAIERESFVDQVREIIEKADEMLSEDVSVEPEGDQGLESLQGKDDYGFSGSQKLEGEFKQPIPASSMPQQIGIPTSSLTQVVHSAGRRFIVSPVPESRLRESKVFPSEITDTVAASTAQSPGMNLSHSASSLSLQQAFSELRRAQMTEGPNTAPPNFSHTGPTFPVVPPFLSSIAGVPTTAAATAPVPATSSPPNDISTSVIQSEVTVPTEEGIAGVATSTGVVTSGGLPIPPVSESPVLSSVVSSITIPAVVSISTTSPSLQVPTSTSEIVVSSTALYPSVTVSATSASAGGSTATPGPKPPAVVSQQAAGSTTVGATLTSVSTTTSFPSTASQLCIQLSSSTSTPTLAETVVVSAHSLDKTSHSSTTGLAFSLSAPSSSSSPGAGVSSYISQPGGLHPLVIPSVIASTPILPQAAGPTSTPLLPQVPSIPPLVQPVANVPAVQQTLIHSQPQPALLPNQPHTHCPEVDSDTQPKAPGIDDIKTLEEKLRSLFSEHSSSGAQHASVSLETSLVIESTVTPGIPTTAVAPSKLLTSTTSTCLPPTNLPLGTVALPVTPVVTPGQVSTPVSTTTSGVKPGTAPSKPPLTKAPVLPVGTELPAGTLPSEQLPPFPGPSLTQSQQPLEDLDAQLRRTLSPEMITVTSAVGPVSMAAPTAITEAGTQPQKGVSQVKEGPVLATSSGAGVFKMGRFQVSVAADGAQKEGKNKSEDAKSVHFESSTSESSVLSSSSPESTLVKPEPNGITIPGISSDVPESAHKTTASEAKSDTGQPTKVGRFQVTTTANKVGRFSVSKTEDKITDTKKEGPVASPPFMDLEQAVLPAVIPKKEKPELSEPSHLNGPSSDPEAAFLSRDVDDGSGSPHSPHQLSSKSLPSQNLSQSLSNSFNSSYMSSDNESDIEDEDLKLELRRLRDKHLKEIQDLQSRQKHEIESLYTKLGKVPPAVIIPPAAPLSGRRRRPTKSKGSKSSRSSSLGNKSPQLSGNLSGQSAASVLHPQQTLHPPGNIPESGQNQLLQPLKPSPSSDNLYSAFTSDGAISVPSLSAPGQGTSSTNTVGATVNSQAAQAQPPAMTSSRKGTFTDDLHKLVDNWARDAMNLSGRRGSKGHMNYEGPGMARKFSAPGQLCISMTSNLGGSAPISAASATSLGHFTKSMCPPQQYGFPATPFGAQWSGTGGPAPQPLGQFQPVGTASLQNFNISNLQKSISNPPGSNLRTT
Chain of Casein kinase I isoform delta (P48730 whole entry, looked up, canonical isoform): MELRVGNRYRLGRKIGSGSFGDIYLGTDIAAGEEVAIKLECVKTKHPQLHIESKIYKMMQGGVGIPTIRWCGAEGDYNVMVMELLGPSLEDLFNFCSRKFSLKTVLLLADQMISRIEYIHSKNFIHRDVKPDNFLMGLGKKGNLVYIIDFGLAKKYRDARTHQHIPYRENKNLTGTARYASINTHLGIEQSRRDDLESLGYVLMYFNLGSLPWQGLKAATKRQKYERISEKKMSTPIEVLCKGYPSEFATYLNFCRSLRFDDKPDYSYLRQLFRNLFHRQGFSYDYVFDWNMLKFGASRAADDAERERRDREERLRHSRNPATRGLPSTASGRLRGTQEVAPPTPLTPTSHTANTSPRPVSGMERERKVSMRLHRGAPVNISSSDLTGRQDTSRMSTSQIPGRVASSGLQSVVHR
Chain of Dual specificity protein kinase CLK3 (P49761 whole entry, looked up): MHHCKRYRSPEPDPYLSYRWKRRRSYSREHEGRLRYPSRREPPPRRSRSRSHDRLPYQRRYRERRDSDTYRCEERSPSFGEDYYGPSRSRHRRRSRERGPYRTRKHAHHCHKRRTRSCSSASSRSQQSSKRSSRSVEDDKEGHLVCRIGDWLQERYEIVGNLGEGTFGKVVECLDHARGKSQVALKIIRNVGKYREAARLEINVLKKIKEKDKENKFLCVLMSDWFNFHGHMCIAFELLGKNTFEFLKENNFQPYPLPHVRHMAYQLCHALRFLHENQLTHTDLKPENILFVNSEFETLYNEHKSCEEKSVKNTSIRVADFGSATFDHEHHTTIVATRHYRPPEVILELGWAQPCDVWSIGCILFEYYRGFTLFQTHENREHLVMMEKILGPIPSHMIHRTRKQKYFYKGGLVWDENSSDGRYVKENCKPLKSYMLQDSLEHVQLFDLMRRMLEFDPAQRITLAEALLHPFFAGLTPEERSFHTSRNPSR
Chain of Serine/threonine-protein kinase MARK2 (Homo sapiens) (Q7KZI7 whole entry): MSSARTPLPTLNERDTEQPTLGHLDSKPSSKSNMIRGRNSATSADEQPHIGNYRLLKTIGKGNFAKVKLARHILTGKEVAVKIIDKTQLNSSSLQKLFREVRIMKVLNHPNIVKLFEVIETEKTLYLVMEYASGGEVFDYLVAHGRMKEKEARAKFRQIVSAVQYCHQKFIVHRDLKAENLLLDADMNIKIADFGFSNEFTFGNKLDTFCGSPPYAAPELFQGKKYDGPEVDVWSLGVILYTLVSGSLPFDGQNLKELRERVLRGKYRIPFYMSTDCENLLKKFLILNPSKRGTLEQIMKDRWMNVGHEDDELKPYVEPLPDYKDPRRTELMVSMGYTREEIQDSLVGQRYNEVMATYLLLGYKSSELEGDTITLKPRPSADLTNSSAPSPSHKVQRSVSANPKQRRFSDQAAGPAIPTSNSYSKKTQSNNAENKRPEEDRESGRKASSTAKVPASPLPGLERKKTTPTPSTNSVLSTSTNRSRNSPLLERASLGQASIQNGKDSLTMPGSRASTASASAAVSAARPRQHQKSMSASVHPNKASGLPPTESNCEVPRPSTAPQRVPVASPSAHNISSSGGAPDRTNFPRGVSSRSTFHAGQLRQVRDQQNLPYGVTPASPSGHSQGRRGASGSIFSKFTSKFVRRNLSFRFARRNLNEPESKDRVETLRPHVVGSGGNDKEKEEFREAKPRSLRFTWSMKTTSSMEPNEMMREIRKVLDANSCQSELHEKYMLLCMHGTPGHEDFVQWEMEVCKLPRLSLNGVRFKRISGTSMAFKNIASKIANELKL
Chain of Tyrosine-protein kinase HCK (Homo sapiens) (P08631 2-526 limits assumed): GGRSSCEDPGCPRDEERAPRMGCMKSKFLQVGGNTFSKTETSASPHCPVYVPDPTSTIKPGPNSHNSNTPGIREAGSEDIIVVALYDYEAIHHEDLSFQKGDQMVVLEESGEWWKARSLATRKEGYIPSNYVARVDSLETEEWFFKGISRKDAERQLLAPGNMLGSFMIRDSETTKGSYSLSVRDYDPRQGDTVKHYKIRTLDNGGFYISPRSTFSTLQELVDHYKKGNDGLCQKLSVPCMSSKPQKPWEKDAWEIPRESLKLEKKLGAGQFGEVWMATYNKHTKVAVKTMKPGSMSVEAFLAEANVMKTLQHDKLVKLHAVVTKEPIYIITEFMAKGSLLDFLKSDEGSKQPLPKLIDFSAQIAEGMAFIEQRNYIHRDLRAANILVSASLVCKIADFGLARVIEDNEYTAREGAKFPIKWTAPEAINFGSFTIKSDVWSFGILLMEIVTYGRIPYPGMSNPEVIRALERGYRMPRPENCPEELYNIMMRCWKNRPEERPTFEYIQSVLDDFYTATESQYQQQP
Chain of Mitogen-activated protein kinase 14 (Q16539 whole entry): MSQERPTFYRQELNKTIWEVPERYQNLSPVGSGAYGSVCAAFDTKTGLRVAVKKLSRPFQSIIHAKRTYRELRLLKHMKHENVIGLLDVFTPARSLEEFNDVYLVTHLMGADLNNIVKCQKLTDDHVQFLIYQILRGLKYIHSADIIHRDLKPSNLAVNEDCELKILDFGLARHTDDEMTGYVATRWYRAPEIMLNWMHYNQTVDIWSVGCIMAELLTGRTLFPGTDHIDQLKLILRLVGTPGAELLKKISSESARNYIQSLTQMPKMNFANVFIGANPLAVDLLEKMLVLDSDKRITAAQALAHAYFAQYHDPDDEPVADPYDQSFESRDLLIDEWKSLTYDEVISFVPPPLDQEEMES

IC50 [1]: > 11 µM
Structure (SMILES): CCc1cc(Nc2nccc(-c3c(-c4ccc(OC)c(C(=O)Nc5c(F)cccc5F)c4)nc4ccccn34)n2)c(OC)cc1N1CCC(N2CCN(S(C)(=O)=O)CC2)CC1

Structure (SMILES): CN(C)C/C=C/C(=O)Nc1ccc(C(=O)N2CCCC(Nc3ncc(Cl)c(-c4c[nH]c5ccccc45)n3)C2)cc1 (stereo not given)
% of control [2]: 94%
% of control [3]: 59%

Structure (SMILES): Nc1cnc(N2CCc3cc(S(=O)(=O)Nc4c(F)cc(Cl)cc4F)cc(N4CCCC4=O)c32)nc1 [TP-020n]
% of control [4]: 95%

Structure (SMILES): O[C@H]1CC[C@H](Nc2ncc3nc(Nc4c(F)cc(F)cc4F)n([C@H]4CCOC4)c3n2)CC1
% of control [5]: 91%

Structure (SMILES): N#Cc1cccc(-c2c[nH]c3ncnc(N4CCOCC4)c23)c1
% of control [6]: 57%

Structure (SMILES): C=CC(=O)Nc1cc(-n2c(=O)ccc3cnc4ccc(-c5ccc(NS(C)(=O)=O)cc5)cc4c32)ccc1C
% of control ([7]; at 1 µM): 100%
% of control ([7]; at 10 µM): 98%

Structure (SMILES): COCC(=O)NC/C=C/c1ccc2ncnc(Nc3ccc(Oc4ccc(C)nc4)c(C)c3)c2c1 [CP-724714]
% of control [8]: 92%

% of inhibition [9]: -32.6%
% of inhibition [10]: 12.7%
% of inhibition ([11]; at 0.01 µM): 10.1%
% of inhibition ([11]; at 0.04 µM): 23.3%
% of inhibition ([11]; at 0.2 µM): 9.7%
% of inhibition ([11]; at 1 µM): 3.1%
% of inhibition ([11]; at 5 µM): 3%
Structure (SMILES): CC[C@@H]1[C@H](F)C(=O)N[C@@H]1COc1nccc2cc(C(N)=O)c(OC)cc12 [ZIMLOVISERTIB]

% of control ([12]; at 1 µM): 13%
% of control ([12]; at 5 µM): 3%
Structure (SMILES): C=CC(=O)Nc1cccc(C(=O)Nc2ccc(Nc3cc(-c4[nH]c(SC)nc4C)ccn3)cc2)c1

Structure (SMILES): COc1cc(Nc2nc(C)cc(-c3cnn4nc(OC)ccc34)n2)cc(C(F)(F)F)c1
% of control [13]: 82%

Structure (SMILES): CCC(=O)N1CCN(c2ccc(-n3c(=O)ccc4cnc5ccc(-c6cnc7ccccc7c6)cc5c43)cc2C(F)(F)F)CC1
% of control (Activated CDC42 kinase 1): 51%
